Measurements as given in patent US12077503B2, “Substituted cyclic amides and their use as herbicides” (FMC CORPORATION, priority 2015, dated 2024).

What was measured:
Type in all cases: in vivo
Kochia (Kochia scoparia) [1] = test: Test A preemergence; details: Preemergence; for Plant response rating, Kochia: 125 g ai/ha, visual injury after approximately 10 d, 0 to 100 scale where 0 is no effect and 100 is complete control; for Kochia plant response rating (0 to 100 scale, 0 is no effect, 100 is complete control): 500 g ai/ha, visual injury approx. 10 d
Procedure, shortened: (§1)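 Preemergence soil spray on seeded pots or post-emergence spray on 1–2 leaf plants, in loam–sand blend. Greenhouse ~10 d. Visual rating 0–100 against untreated plants.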

[2] = test system: barnyardgrass (Echinochloa crus-galli); test: Test A preemergence; details: Preemergence; for Plant response rating, Barnyardgrass: 125 g ai/ha, visual injury after approximately 10 d, 0 to 100 scale where 0 is no effect and 100 is complete control; for Barnyardgrass plant response rating (0 to 100 scale, 0 is no effect, 100 is complete control): 500 g ai/ha, visual injury approx. 10 d
Procedure, shortened: as §1

[3] = test system: giant foxtail (Setaria faberii); test: Test A preemergence; details: Preemergence; for Plant response rating, Foxtail, Giant: 125 g ai/ha, visual injury after approximately 10 d, 0 to 100 scale where 0 is no effect and 100 is complete control; for Foxtail, Giant plant response rating (0 to 100 scale, 0 is no effect, 100 is complete control): 500 g ai/ha, visual injury approx. 10 d
Procedure, shortened: as §1

[4] = test system: pigweed (Amaranthus retroflexus); test: Test A preemergence; details: Preemergence; for Plant response rating, Pigweed: 125 g ai/ha, visual injury after approximately 10 d, 0 to 100 scale where 0 is no effect and 100 is complete control; for Pigweed plant response rating (0 to 100 scale, 0 is no effect, 100 is complete control): 500 g ai/ha, visual injury approx. 10 d
[5] = test system: ragweed (common ragweed, Ambrosia elatior); test: Test A preemergence; details: Preemergence; for Plant response rating, Ragweed: 125 g ai/ha, visual injury after approximately 10 d, 0 to 100 scale where 0 is no effect and 100 is complete control; for Ragweed plant response rating (0 to 100 scale, 0 is no effect, 100 is complete control): 500 g ai/ha, visual injury approx. 10 d
Procedure, shortened: as §1

[6] = test system: ryegrass, Italian (Italian ryegrass, Lolium multiflorum); test: Test A preemergence; details: Preemergence; for Plant response rating, Ryegrass, Italian: 125 g ai/ha, visual injury after approximately 10 d, 0 to 100 scale where 0 is no effect and 100 is complete control; for Ryegrass, Italian plant response rating (0 to 100 scale, 0 is no effect, 100 is complete control): 500 g ai/ha, visual injury approx. 10 d
Procedure, shortened: as §1

[7] = test system: Galium (catchweed bedstraw, Galium aparine); test: Test A postemergence; details: for Galium plant response rating: visual injury rating on 0 to 100 scale (0 no effect, 100 complete control), approx. 10 d
Procedure, shortened: as §1

Kochia (Kochia scoparia) [8] = test: Test A postemergence; details: for Kochia plant response rating: visual injury rating on 0 to 100 scale (0 no effect, 100 complete control), approx. 10 d
Procedure, shortened: as §1

[9] = test system: barnyardgrass (Echinochloa crus-galli); test: Test A postemergence; details: for Barnyardgrass plant response rating: visual injury rating on 0 to 100 scale (0 no effect, 100 complete control), approx. 10 d
Procedure, shortened: as §1

[10] = test system: blackgrass (Alopecurus myosuroides); test: Test A postemergence; details: for Blackgrass plant response rating: visual injury rating on 0 to 100 scale (0 no effect, 100 complete control), approx. 10 d
Procedure, shortened: as §1

corn (Zea mays) = test: Test A postemergence; details: for Corn plant response rating: visual injury rating on 0 to 100 scale (0 no effect, 100 complete control), approx. 10 d
Procedure, shortened: as §1

[11] = test system: giant foxtail (Setaria faberii); test: Test A postemergence; details: for Foxtail, Giant plant response rating: visual injury rating on 0 to 100 scale (0 no effect, 100 complete control), approx. 10 d
Procedure, shortened: as §1

[12] = test system: pigweed (Amaranthus retroflexus); test: Test A postemergence; details: for Pigweed plant response rating: visual injury rating on 0 to 100 scale (0 no effect, 100 complete control), approx. 10 d
Procedure, shortened: as §1

[13] = test system: ragweed (common ragweed, Ambrosia elatior); test: Test A postemergence; details: for Ragweed plant response rating: visual injury rating on 0 to 100 scale (0 no effect, 100 complete control), approx. 10 d
Procedure, shortened: as §1

[14] = test system: ryegrass, Italian (Italian ryegrass, Lolium multiflorum); test: Test A postemergence; details: for Ryegrass, Italian plant response rating: visual injury rating on 0 to 100 scale (0 no effect, 100 complete control), approx. 10 d
Procedure, shortened: as §1

[15] = test system: wheat (Triticum aestivum); test: Test A postemergence; details: for Wheat plant response rating: visual injury rating on 0 to 100 scale (0 no effect, 100 complete control), approx. 10 d
Procedure, shortened: as §1

[16] = test system: barnyardgrass (Echinochloa crus-galli); test: Test B flooded paddy test; details: Flood, 250 g ai/ha; 0 to 100 scale where 0 is no effect and 100 is complete control; 13 to 15 d
Procedure, shortened: (§2)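 Visual ratings (0 none to 100 complete control) are relative to untreated plants, taken 13–15 d after treatment in a greenhouse. Test material went straight into floodwater standing 3 cm above the soil, kept constant, on plants at the 2-leaf stage.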

[17] = test system: ducksalad (Heteranthera limosa); test: Test B flooded paddy test; details: Flood, 250 g ai/ha; 0 to 100 scale where 0 is no effect and 100 is complete control; 13 to 15 d
Procedure, shortened: as §2

rice (Oryra sativa) = test: Test B flooded paddy test; details: Flood, 250 g ai/ha; 0 to 100 scale where 0 is no effect and 100 is complete control; 13 to 15 d
Procedure, shortened: as §2

[18] = test system: sedge, umbrella (small-flower umbrella sedge, Cyperus difformis); test: Test B flooded paddy test; details: Flood, 250 g ai/ha; 0 to 100 scale where 0 is no effect and 100 is complete control; 13 to 15 d
Procedure, shortened: as §2

[19] = Postemergence, 500 g ai/ha, 0 to 100 scale where 0 is no effect and 100 is complete control
[20] = 125 g ai/ha, postemergence, visual rating after approx. 10 d, 0 to 100 scale (0 no effect, 100 complete control)

Structure (SMILES)	Plant response rating, Kochia (Kochia (Kochia scoparia) [1])	Kochia plant response rating (0 to 100 scale, 0 is no effect, 100 is complete control) (Kochia (Kochia scoparia) [1])	Plant response rating, Barnyardgrass [2]	Barnyardgrass plant response rating (0 to 100 scale, 0 is no effect, 100 is complete control) [2]	Plant response rating, Foxtail, Giant [3]	Foxtail, Giant plant response rating (0 to 100 scale, 0 is no effect, 100 is complete control) [3]	Plant response rating, Pigweed [4]	Pigweed plant response rating (0 to 100 scale, 0 is no effect, 100 is complete control) [4]	Plant response rating, Ragweed [5]	Ragweed plant response rating (0 to 100 scale, 0 is no effect, 100 is complete control) [5]	Plant response rating, Ryegrass, Italian [6]	Ryegrass, Italian plant response rating (0 to 100 scale, 0 is no effect, 100 is complete control) [6]	Plant response rating, Galium [7, 19]	Plant response rating, Kochia (Kochia (Kochia scoparia) [8]; [19])	Plant response rating, Barnyardgrass [9, 19]	Plant response rating, Blackgrass [10, 19]	Plant response rating, Corn (corn (Zea mays); [19])	Plant response rating, Foxtail, Giant [11, 19]	Plant response rating, Pigweed [12, 19]	Plant response rating, Ragweed [13, 19]	also measured
O=C(Nc1cccc(F)c1F)C1C(=O)N(CC=CCl)CC1c1cccc(C(F)(F)F)c1 (stereo not drawn) [Compound 485]	0	0	30	80	70	90	0	0	0	0	0	0	30	30	50	0	20	70	40	0	Galium plant response rating ([7]; 125 g ai/ha, postemergence): 0; Kochia plant response rating (Kochia (Kochia scoparia) [8]; 125 g ai/ha, postemergence): 0; Barnyardgrass plant response rating ([9]; 125 g ai/ha, postemergence): 20; Blackgrass plant response rating ([10]; 125 g ai/ha, postemergence): 0; Corn plant response rating (corn (Zea mays); 125 g ai/ha, postemergence): 0; Foxtail, Giant plant response rating ([11]; 125 g ai/ha, postemergence): 20; Pigweed plant response rating ([12]; 125 g ai/ha, postemergence): 0; Ragweed plant response rating ([13]; 125 g ai/ha, postemergence): 0; Ryegrass, Italian plant response rating ([14]; 125 g ai/ha, postemergence): 0; Plant response rating, Ryegrass, Italian [14, 19]: 0; Wheat plant response rating ([15]; 125 g ai/ha, postemergence): 0; Plant response rating, Wheat [15, 19]: 20; Plant response rating, Barnyardgrass [16]: 0; Plant response rating, Ducksalad [17]: 40; Plant response rating, Rice (rice (Oryra sativa)): 0; Plant response rating, Sedge, Umbrella [18]: 0
O=C1NCC(c2cc(F)cc(Cl)c2)C1C(=O)Nc1ccc(F)cc1F (stereo not drawn) [Compound 493]	0	20	90	90	90	90	0	0	0	30	0	20	40	20	90	50	70	90	0	20	Galium plant response rating ([7]; 125 g ai/ha, postemergence): 30; Kochia plant response rating (Kochia (Kochia scoparia) [8]; 125 g ai/ha, postemergence): 0; Barnyardgrass plant response rating ([9]; 125 g ai/ha, postemergence): 90; Blackgrass plant response rating ([10]; 125 g ai/ha, postemergence): 20; Corn plant response rating (corn (Zea mays); 125 g ai/ha, postemergence): 0; Foxtail, Giant plant response rating ([11]; 125 g ai/ha, postemergence): 90; Pigweed plant response rating ([12]; 125 g ai/ha, postemergence): 0; Ragweed plant response rating ([13]; 125 g ai/ha, postemergence): 20; Ryegrass, Italian plant response rating ([14]; 125 g ai/ha, postemergence): 20; Plant response rating, Ryegrass, Italian [14, 19]: 50; Wheat plant response rating ([15]; 125 g ai/ha, postemergence): 0; Plant response rating, Wheat [15, 19]: 30; Plant response rating, Barnyardgrass [16]: 60; Plant response rating, Ducksalad [17]: 80; Plant response rating, Rice (rice (Oryra sativa)): 25; Plant response rating, Sedge, Umbrella [18]: 0
COCc1cccc(C2CNC(=O)C2C(=O)Nc2ccccc2Cl)c1 (stereo not drawn) [Compound 498]	0	0	30	90	40	80	0	0	0	0	0	0	0	0	70	0	0	40	0	0	Galium plant response rating ([7]; 125 g ai/ha, postemergence): 0; Kochia plant response rating (Kochia (Kochia scoparia) [8]; 125 g ai/ha, postemergence): 0; Barnyardgrass plant response rating ([9]; 125 g ai/ha, postemergence): 30; Blackgrass plant response rating ([10]; 125 g ai/ha, postemergence): 0; Corn plant response rating (corn (Zea mays); 125 g ai/ha, postemergence): 0; Foxtail, Giant plant response rating ([11]; 125 g ai/ha, postemergence): 20; Pigweed plant response rating ([12]; 125 g ai/ha, postemergence): 0; Ragweed plant response rating ([13]; 125 g ai/ha, postemergence): 0; Ryegrass, Italian plant response rating ([14]; 125 g ai/ha, postemergence): 0; Plant response rating, Ryegrass, Italian [14, 19]: 0; Wheat plant response rating ([15]; 125 g ai/ha, postemergence): 0; Plant response rating, Wheat [15, 19]: 0; Plant response rating, Barnyardgrass [16]: 45; Plant response rating, Ducksalad [17]: 90; Plant response rating, Rice (rice (Oryra sativa)): 0; Plant response rating, Sedge, Umbrella [18]: 0
CN1CC(c2c(F)cccc2F)C(C(=O)Nc2cccc(F)c2F)C1=O (stereo not drawn) [Compound 547]	0	0	90	90	90	90	0	0	0	70	0	0	20	50	90	0	0	90	0	30	Plant response rating, Galium [7, 20]: 0; Plant response rating, Kochia (Kochia (Kochia scoparia) [8]; [20]): 0; Plant response rating, Barnyardgrass [9, 20]: 70; Plant response rating, Blackgrass [10, 20]: 0; Plant response rating, Corn (corn (Zea mays); [20]): 0; Plant response rating, Foxtail, Giant [11, 20]: 80; Plant response rating, Pigweed [12, 20]: 0; Plant response rating, Ragweed [13, 20]: 0; Plant response rating, Ryegrass, Italian [14, 20]: 0; Plant response rating, Ryegrass, Italian [14, 19]: 0; Plant response rating, Wheat [15, 20]: 0; Plant response rating, Wheat [15, 19]: 0; Plant response rating, Barnyardgrass [16]: 0; Plant response rating, Ducksalad [17]: 0; Plant response rating, Rice (rice (Oryra sativa)): 0; Plant response rating, Sedge, Umbrella [18]: 0
CC(C)Oc1cccc(C2CNC(=O)C2C(=O)Nc2ccccc2F)c1 (stereo not drawn) [Compound 552]	0	70	90	90	90	90	0	0	0	60	20	40	60	30	90	70	50	80	0	20	Plant response rating, Galium [7, 20]: 40; Plant response rating, Kochia (Kochia (Kochia scoparia) [8]; [20]): 0; Plant response rating, Barnyardgrass [9, 20]: 80; Plant response rating, Blackgrass [10, 20]: 30; Plant response rating, Corn (corn (Zea mays); [20]): 20; Plant response rating, Foxtail, Giant [11, 20]: 70; Plant response rating, Pigweed [12, 20]: 0; Plant response rating, Ragweed [13, 20]: 0; Plant response rating, Ryegrass, Italian [14, 20]: 30; Plant response rating, Ryegrass, Italian [14, 19]: 50; Plant response rating, Wheat [15, 20]: 0; Plant response rating, Wheat [15, 19]: 40; Plant response rating, Barnyardgrass [16]: 60; Plant response rating, Ducksalad [17]: 100; Plant response rating, Rice (rice (Oryra sativa)): 10; Plant response rating, Sedge, Umbrella [18]: 0
